Assay results taken from article PMC8399019, “Inhibition of Cysteine Proteases by 6,6′-Dihydroxythiobinupharidine (DTBN) from Nuphar lutea” (Molecules, 2021).

What was measured:
Assay type in all cases: biochemical
[1] = molecular target: T1, Human Cathepsin S (Homo sapiens, UniProt P25774); assay: Enzyme inhibition assay, Human Cathepsin S (fluorometric); conditions: triplicates, value (SD)
T1 construct: purchased ABCAM (so in the source) 1183-cy
Description: (§1) Enzyme inhibition assays were performed in triplicates using transparent 96-well plates for Calpain, Trypsin, Papain, Cathepsin L and Cathepsin B (167008; Nunc, Roskilde, Denmark), or black ones for Cathepsin S, (Greiner 96 Polystyrol GRE96fb), according to manufacturers’ instructions. Briefly, a reaction mixture of 100 µL contained: 45µL of enzyme in assay buffer, 5 µL of inhibitor diluted in DMSO. 50 µL substrate prepared in assay buffer according to manufacturers’ instructions. The inhibitor was serially diluted in DMSO to concentrations from 0.0075 µg/µL to 0.0000075 µg/µL. A total of […] DMSO was added to the control sample. The enzyme substrate mix was added last, just before starting the fluorometric measurement. Data were collected for 1.5 h at 60 sec intervals.
(§2) Papain Latex (cat. No. p3125), Human Cathepsin B (cat.no. C0150), Trypsin and Calpain (cat. No. ab910119) and the substrate, casein-FITC, were obtained from Sigma-Aldrich. The assay was carried out in 0.3 M potassium chloride, 0.1 mM EDTA, and 3 mM DTT pH 6.5. Ex/Em = 485–535 nm. Human Cathepsins S (cat. No. 1183-cy) and L (cat.no. ab174030) and their substrates were Mca-RPKPVE-Nval-WRK (Dnp)-NH2 (ES002) and Ac-FR-AFC, respectively. They were obtained from ABCAM. Assay buffer for Human Cathepsin S was 50 mM NaOAc, 250 mM NaCl, 5 mM DTT pH 4.5. […]

[2] = molecular target: T2, Human Cathepsin L (Homo sapiens, UniProt P07711); assay: Enzyme inhibition assay, Human Cathepsin L (fluorometric); conditions: triplicates, value (SD)
T2 construct: purchased ABCAM ab174030
T2 sequence (P07711 114-333): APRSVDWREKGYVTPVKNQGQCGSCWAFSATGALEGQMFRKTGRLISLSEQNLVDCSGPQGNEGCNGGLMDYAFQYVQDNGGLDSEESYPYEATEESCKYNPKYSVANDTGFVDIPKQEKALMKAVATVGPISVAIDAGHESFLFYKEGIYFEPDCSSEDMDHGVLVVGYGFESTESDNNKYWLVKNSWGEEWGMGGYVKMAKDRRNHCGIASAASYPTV
Description: as §1, §2

[3] = molecular target: T3, Papain Latex (Carica papaya, UniProt P00784); assay: Enzyme inhibition assay, Papain Latex (casein-FITC)
T3 construct: purchased Sigma-Aldrich p3125
T3 sequence (P00784 134-345): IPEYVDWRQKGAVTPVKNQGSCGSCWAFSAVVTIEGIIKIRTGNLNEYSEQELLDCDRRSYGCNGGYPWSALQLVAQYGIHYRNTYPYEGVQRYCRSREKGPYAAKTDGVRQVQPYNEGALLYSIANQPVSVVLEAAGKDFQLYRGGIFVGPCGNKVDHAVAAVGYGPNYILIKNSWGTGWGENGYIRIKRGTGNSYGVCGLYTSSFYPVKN
Description: as §1, §2

[4] = molecular target: T4, Human Cathepsin B (Homo sapiens, UniProt P07858); assay: Enzyme inhibition assay, Human Cathepsin B (casein-FITC); conditions: triplicates, value (SD)
T4 construct: purchased Sigma-Aldrich C0150
Description: as §1, §2

T1 sequence (P25774 115-331): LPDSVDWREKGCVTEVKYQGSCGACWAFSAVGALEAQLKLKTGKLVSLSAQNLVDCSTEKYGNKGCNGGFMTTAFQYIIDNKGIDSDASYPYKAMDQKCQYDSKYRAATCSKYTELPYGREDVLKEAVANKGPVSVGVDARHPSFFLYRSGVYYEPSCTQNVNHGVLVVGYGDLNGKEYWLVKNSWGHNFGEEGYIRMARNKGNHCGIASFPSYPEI

SMILES: CC1CCC(c2ccoc2)N2C1CCC1(CSC3(CCC4C(C)CCC(c5ccoc5)N4C3O)C1)C2O (stereo not shown) [DTBN, 6,6′-dihydroxythiobinupharidine]
- IC50 [1]: 3.2 µM
- IC50 [2]: 13.2 µM
- IC50 [3]: 70.4 µM
- IC50 [4]: 1360 µM
